Test results: patent US20100069460A1, “1-PHENYL 1-THIO-D-GLUCITOL DERIVATIVE” (TAISHO PHARMACEUTICAL CO., LTD., priority 2006, published 2010)

Columns and labels:
db/db mice = test: Confirmation test for hypoglycemic effect in db/db mice; type: in vivo; details: oral gavage, 1 mg/10 mL suspension at 10 mL/kg, decrease in blood glucose AUC (0 to 8 hours) relative to control group
Experimental: The laboratory animals used were db/db mice (CLEA Japan, Inc., male, 7 weeks of age). A test substance was suspended in a 0.5% aqueous carboxymethylcellulose (CMC) solution and adjusted to a concentration of 1 mg/10 mL. On the day of the test, the db/db mice were divided into groups of 6 animals each, such that differences in the mean values and variance of their blood glucose levels were minimized, according to the procedures for blood collection and blood glucose measurement described later. The mice were measured for their body weight. Then, the test substance suspension was administered by oral gavage using a probe for oral administration at a volume of 10 mL/kg. The control group received a 0.5% aqueous CMC solution alone. Blood was collected at 8 points in total: before administration of the test substance (0 hour) and 0.5, 1, 2, 4, 6, 8 and 24 hours after oral administration. The test was performed under ad libitum feeding and drinking conditions.
Blood was collected from the orbital venous sinus of each animal under ether anesthesia using a heparin-coated blood collection tube and measured for its blood glucose level with a Glucose CII-Test Wako (Wako Pure Chemical Industries, Ltd., Japan). To determine the intensity (%) of hypoglycemic effect, casual blood glucose levels measured between 0 and 8 hours in each test group were analyzed by the trapezoidal method to calculate the area under the blood glucose-time curve (AUC). The results are expressed as a decrease in AUC relative to that of the control group.

human SGLT1 = target: T1, human SGLT1 (Homo sapiens, UniProt P13866); test: Inhibition test for sodium-dependent sugar uptake in CHO-k1 cells stably expressing human SGLT1; type: cell-based; details: 0.1 mM [14C]methyl α-D-glucopyranoside uptake, 37° C., 30 minutes
T1 construct: expressed in transfected cells; vector pCMV-tag5A (Stratagene)
T1 sequence (P13866 1-664): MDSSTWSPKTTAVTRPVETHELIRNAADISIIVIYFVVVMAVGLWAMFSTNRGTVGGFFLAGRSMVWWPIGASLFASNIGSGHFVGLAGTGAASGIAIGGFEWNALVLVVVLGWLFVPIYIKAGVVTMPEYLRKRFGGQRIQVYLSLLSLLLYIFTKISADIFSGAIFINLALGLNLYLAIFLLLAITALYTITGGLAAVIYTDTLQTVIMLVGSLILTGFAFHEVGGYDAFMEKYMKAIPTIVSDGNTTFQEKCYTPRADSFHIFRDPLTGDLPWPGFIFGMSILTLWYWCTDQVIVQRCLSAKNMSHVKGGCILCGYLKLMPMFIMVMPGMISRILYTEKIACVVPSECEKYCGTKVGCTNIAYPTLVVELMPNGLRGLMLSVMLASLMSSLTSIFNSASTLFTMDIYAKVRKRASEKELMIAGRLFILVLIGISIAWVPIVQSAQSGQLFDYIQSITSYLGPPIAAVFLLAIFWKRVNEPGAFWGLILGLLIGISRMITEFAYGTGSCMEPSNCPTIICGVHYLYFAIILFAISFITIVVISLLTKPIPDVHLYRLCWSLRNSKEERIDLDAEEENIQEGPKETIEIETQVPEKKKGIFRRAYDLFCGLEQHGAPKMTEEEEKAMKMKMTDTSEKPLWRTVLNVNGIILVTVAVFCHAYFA
Experimental: (§1) A human SGLT1 sequence (NM_000343) was reverse-transcribed and amplified from human small intestine mRNA, and then introduced into pCMV-tag5A (Stratagene). Likewise, a human SGLT2 sequence (NM_003041) was prepared from human kidney mRNA in the same manner and introduced into pcDNA3.1+hygro (Invitrogen). The individual cloned sequences were confirmed to be identical with the sequences reported.
(§2) The human SGLT1 and human SGLT2 expression vectors were each transfected into CHO-k1 cells using lipofectamine 2000 (Invitrogen). The cells were cultured in the presence of 500 μg/mL geneticin (SGLT1) or hygromycin B (SGLT2) to select resistant strains and specific activity of sugar uptake in the system shown below was used as an indicator to obtain SGLT-expressing cells.
(§3) The cells stably expressing human SGLT1 or human SGLT2 were used for an inhibition test of sodium-dependent sugar uptake activity.
(§4) The cells were incubated for 20 minutes in 1 mL pretreatment buffer (140 mM choline chloride, 2 mM KCl, 1 mM CaCl2, 1 mM MgCl2, 10 mM HEPES/5 mM Tris, pH 7.4). The pretreatment buffer was removed and replaced with 200 μL uptake buffer containing a test compound (methyl α-D-glucopyranoside (containing [^14C]methyl α-D-glucopyranoside) at 0.1 mM for SGLT1 inhibition and 1 mM for SGLT2 inhibition, 140 mM NaCl, 2 mM KCl, 1 mM CaCl2, 1 mM MgCl2, 10 mM HEPES/5 mM Tris, pH 7.4). Uptake reaction was performed at 37° C. for 30 minutes (SGLT1) or 1 hour (SGLT2). After the reaction, the cells were washed twice with 1 mL washing buffer (10 mM methyl α-D-glucopyranoside, 140 mM choline chloride, 2 mM KCl, 1 mM CaCl2, 1 mM MgCl2, 10 mM HEPES/5 mM Tris, pH 7.4), and then dissolved in a 0.2 M NaOH solution (400 μL). Aquazol 2 (Perkin Elmer) was added and mixed well with each sample, followed by measurement of radioactivity using a liquid scintillation counter (Beckman Coulter) to calculate the amount of sugar uptake. For the control group, uptake buffer containing no test compound was prepared. Moreover, another uptake buffer containing choline chloride instead of NaCl was also prepared for basal uptake.
(§5) Test compounds prepared at 6 appropriate concentrations were used to measure the amount of sugar uptake, and their concentrations required for 50% inhibition of the amount of sugar uptake were calculated as IC50 values, assuming that the amount of sugar uptake in the control group was set to 100%.

human SGLT2 = target: T2, human SGLT2 (Homo sapiens, UniProt P31639); test: Inhibition test for sodium-dependent sugar uptake in CHO-k1 cells stably expressing human SGLT2; type: cell-based; details: 1 mM [14C]methyl α-D-glucopyranoside uptake, 37° C., 1 hour
T2 construct: expressed in transfected cells; vector pcDNA3.1+hygro (Invitrogen)
T2 sequence (P31639 1-672): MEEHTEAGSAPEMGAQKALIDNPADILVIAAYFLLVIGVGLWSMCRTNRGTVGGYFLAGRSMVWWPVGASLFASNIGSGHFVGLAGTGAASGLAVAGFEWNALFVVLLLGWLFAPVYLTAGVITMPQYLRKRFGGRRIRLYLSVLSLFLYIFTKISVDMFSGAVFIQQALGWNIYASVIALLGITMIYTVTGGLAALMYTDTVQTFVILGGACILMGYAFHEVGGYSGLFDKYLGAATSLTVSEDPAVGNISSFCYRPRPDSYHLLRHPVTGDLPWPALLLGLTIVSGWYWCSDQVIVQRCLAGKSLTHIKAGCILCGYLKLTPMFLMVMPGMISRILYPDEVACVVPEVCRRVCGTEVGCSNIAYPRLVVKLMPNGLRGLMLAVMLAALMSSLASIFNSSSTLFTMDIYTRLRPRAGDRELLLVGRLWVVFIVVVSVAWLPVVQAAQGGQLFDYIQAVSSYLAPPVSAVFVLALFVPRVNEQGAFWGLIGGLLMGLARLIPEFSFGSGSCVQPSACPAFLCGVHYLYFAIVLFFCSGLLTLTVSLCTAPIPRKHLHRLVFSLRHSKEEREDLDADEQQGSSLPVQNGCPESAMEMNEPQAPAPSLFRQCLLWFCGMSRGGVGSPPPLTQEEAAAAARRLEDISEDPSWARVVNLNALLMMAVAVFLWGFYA
Experimental: as §1, §2, §3, §4, §5

## CCOc1ccc(Cc2cc([C@@H]3S[C@H](CO)[C@@H](O)[C@H](O)[C@H]3O)c(O)cc2C)cc1 [Compound 98, reference compound]
db/db mice
  Intensity of hypoglycemic effect: 35.0%

## Cc1ccc(Cc2cc([C@@H]3S[C@H](CO)[C@@H](O)[C@H](O)[C@H]3O)c(O)cc2C)cc1 [Compound I, (1S)-1,5-anhydro-1-[4-methyl-5-(4-methylbenzyl)-2-hydroxyphenyl]-1-thio-D-glucitol]
Human SGLT1
  IC50: 17 nM
Human SGLT2
  IC50: 20 nM
db/db mice
  Intensity of hypoglycemic effect: 48.5%

## CSc1ccc(Cc2cc([C@@H]3S[C@H](CO)[C@@H](O)[C@H](O)[C@H]3O)c(O)cc2C)cc1 [Compound IV, (1S)-1,5-anhydro-1-[2-hydroxy-4-methyl-5-[4-(methylsulfanyl)benzyl]phenyl]-1-thio-D-glucitol]
Human SGLT1
  IC50: 27 nM
Human SGLT2
  IC50: 10 nM

## COc1ccc(Cc2cc([C@@H]3S[C@H](CO)[C@@H](O)[C@H](O)[C@H]3O)c(O)cc2C)cc1 [II, (1S)-1,5-anhydro-1-[5-(4-methoxybenzyl)-4-methyl-2-hydroxyphenyl]-1-thio-D-glucitol]
Human SGLT1
  IC50: 32 nM
Human SGLT2
  IC50: 20 nM
db/db mice
  Intensity of hypoglycemic effect: 49.7%

## CCc1ccc(Cc2cc([C@@H]3S[C@H](CO)[C@@H](O)[C@H](O)[C@H]3O)c(O)cc2C)cc1 [III, (1 S)-1,5-anhydro-1-[5-(4-ethylbenzyl)-2-hydroxy-4-methylphenyl]-1-thio-D-glucitol]
Human SGLT1
  IC50: 32 nM
Human SGLT2
  IC50: 12 nM

## Cc1ccc(Cc2cc([C@@H]3S[C@H](CO)[C@@H](O)[C@H](O)[C@H]3O)c(O)cc2Cl)cc1 [V, (1S)-1,5-anhydro-1-[4-chloro-2-hydroxy-5-(4-methylbenzyl)phenyl]-1-thio-D-glucitol]
Human SGLT1
  IC50: 19 nM
Human SGLT2
  IC50: 11 nM

## CCc1ccc(Cc2cc([C@@H]3S[C@H](CO)[C@@H](O)[C@H](O)[C@H]3O)c(O)cc2Cl)cc1 [VI, (1S)-1,5-anhydro-1-[4-chloro-2-hydroxy-5-(4-ethylbenzyl)phenyl]-1-thio-D-glucitol]
Human SGLT1
  IC50: 29 nM
Human SGLT2
  IC50: 8 nM

## COc1ccc(Cc2cc([C@@H]3S[C@H](CO)[C@@H](O)[C@H](O)[C@H]3O)c(O)cc2Cl)cc1 [VII, (1S)-1,5-anhydro-1-[4-chloro-2-hydroxy-5-(4-methoxybenzyl)phenyl]-1-thio-D-glucitol]
Human SGLT1
  IC50: 33 nM
Human SGLT2
  IC50: 13 nM
